In ChEMBL document CHEMBL2057167, “Rapid identification of ETP-46992, orally bioavailable PI3K inhibitor, selective versus mTOR” (Bioorg Med Chem Lett, 2012):
The source made the active and inactive calls. The calls are words filed in the database; no cut-off is given here.

Columns and labels:
[1] = target: Serine/threonine-protein kinase mTOR (Homo sapiens, UniProt P42345); assay: Inhibition of mTOR
[2] = target: T1, Phosphatidylinositol 4,5-bisphosphate 3-kinase catalytic subunit alpha isoform (Homo sapiens, UniProt P42336); assay: Inhibition of PI3Kalpha-mediated AKT phosphorylation at Ser473 in human U2OS cells by Western blot analysis; assay type: cell-based
T1 sequence (P42336 whole entry, canonical isoform): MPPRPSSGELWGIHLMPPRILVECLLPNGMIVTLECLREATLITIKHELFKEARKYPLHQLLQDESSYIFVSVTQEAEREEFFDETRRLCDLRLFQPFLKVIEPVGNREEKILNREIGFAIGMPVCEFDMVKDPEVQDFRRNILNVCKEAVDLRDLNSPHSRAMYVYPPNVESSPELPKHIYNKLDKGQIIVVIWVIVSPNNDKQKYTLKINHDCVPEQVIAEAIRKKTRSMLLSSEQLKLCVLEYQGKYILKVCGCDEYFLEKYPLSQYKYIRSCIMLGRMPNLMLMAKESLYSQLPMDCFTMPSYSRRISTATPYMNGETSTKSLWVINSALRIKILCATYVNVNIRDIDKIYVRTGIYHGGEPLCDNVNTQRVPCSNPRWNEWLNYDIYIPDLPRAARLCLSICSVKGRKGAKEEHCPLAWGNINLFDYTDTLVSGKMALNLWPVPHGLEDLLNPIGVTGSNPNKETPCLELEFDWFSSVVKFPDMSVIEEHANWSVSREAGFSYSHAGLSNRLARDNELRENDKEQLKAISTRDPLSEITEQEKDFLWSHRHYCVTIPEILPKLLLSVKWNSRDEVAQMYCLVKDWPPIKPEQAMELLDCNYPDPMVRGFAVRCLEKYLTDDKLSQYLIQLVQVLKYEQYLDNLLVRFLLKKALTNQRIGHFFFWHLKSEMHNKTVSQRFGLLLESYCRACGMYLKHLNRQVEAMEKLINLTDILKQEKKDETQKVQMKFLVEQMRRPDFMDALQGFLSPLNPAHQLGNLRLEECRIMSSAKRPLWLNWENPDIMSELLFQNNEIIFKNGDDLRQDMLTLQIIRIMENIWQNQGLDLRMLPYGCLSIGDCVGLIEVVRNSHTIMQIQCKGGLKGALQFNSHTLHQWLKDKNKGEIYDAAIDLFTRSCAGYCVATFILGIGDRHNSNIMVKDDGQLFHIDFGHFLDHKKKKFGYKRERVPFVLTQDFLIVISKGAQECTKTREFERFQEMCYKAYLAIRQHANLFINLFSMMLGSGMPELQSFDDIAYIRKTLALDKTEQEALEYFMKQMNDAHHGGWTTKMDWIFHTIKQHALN

[3] = target: T1, Phosphatidylinositol 4,5-bisphosphate 3-kinase catalytic subunit alpha isoform; assay: Inhibition of PI3Kalpha assessed as accumulation of ADP
BT-474 = assay: Antitumor activity against human BT474 cells with PI3Kalpha […] mutated xenografted in MF-1 nude mouse assessed as tumor growth inhibition at 10 mg/kg, po qd for weekly 5 days for 2 weeks; assay type: functional; conditions: read-out: GI
Mus musculus [4] = species on record: Mus musculus; assay: Reduction of [18F]-FDG uptake in GEMM mouse lung tumor model driven by KRasG12V oncogenic mutation tumor after 45 mins by PET-CT analysis; assay type: functional; conditions: Neoplasm
Mus musculus [5] = assay: Antitumor activity in GEMM mouse lung tumor model driven by KRasG12V oncogenic mutation assessed as tumor growth inhibition at 25 mg/kg, po qd for weekly 5 days for 3 weeks; assay type: functional; conditions: read-out: GI
[6] = target: T2, Phosphatidylinositol 4,5-bisphosphate 3-kinase catalytic subunit delta isoform (Homo sapiens, UniProt O00329); assay: Inhibition of human PI3Kdelta by HTRF assay; conditions: read-out: Ki(app)
T2 sequence (O00329 whole entry): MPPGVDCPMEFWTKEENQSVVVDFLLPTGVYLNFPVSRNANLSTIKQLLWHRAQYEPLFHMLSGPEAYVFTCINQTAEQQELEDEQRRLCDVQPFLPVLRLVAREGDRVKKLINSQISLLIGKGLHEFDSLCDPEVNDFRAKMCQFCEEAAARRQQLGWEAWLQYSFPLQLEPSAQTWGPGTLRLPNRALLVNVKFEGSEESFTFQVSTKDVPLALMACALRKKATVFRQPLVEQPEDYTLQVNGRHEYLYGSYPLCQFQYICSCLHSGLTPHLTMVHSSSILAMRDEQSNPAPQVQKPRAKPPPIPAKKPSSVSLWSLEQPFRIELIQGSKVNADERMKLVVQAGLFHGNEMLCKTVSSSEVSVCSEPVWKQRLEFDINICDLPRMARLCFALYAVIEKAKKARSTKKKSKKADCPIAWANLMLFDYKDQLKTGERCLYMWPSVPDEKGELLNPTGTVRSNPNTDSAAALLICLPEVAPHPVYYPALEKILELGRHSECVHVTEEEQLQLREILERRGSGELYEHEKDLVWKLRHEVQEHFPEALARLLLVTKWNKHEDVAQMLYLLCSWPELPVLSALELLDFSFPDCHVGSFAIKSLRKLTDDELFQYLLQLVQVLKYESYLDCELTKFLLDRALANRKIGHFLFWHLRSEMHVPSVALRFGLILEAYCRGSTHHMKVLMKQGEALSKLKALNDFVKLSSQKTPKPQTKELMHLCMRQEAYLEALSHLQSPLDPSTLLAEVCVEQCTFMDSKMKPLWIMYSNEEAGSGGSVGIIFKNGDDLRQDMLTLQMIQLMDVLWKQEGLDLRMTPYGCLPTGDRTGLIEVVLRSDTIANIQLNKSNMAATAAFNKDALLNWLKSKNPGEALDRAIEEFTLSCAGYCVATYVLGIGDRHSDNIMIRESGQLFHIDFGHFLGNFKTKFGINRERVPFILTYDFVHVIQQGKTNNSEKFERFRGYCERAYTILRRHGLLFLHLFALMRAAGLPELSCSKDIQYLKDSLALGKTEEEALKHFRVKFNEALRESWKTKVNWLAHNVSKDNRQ

Mus musculus [7] = assay: Down regulation of phosphorylated AKT at S473 level in GEMM mouse lung tumor model driven by KRasG12V oncogenic mutation tumor at 10 mg/kg, po after 1 hr by Western blot analysis; assay type: functional
[8] = target: Phosphatidylinositol 4,5-bisphosphate 3-kinase catalytic subunit gamma isoform (Homo sapiens, UniProt P48736); assay: Inhibition of PI3Kgamma assessed as accumulation of ADP; conditions: read-out: Ki(app)
Chain of Phosphatidylinositol 4,5-bisphosphate 3-kinase catalytic subunit gamma isoform (P48736 whole entry, canonical isoform): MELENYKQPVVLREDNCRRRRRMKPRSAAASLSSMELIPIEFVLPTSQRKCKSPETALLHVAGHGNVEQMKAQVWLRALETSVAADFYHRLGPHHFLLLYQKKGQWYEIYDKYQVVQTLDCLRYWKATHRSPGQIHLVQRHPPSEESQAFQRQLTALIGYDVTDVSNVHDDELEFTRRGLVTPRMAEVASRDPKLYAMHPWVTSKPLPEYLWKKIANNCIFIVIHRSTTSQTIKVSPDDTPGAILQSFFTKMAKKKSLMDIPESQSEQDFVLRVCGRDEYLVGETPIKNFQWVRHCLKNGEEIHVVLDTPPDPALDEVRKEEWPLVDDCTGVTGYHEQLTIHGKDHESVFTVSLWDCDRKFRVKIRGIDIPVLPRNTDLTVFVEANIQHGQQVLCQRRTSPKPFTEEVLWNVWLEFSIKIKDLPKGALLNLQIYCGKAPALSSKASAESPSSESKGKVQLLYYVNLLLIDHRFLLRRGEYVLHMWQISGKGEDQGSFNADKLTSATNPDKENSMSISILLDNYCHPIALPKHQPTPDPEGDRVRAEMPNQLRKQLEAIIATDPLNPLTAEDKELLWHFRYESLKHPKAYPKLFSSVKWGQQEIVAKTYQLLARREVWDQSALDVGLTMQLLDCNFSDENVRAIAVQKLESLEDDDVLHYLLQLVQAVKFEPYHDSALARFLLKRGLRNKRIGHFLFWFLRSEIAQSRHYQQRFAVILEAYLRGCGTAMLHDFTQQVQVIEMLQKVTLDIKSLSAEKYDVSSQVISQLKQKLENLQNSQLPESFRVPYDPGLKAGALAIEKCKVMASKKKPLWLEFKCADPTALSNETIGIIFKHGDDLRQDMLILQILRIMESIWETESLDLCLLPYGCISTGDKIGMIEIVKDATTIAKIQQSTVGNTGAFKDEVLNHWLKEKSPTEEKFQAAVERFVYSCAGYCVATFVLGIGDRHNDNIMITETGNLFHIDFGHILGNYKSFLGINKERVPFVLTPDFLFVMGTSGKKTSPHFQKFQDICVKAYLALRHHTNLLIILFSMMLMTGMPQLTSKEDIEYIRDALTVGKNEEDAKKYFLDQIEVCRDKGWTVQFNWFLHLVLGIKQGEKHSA

Lung = assay: Reduction of [18F]-FDG uptake in GEMM mouse lung tumor model driven by KRasG12V oncogenic mutation lung after 45 mins by PET-CT analysis; assay type: functional, tissue-based
[9] = target: Phosphatidylinositol 4,5-bisphosphate 3-kinase catalytic subunit beta isoform (Homo sapiens, UniProt P42338); assay: Inhibition of human PI3Kbeta by HTRF assay; conditions: read-out: Ki(app)
Chain of Phosphatidylinositol 4,5-bisphosphate 3-kinase catalytic subunit beta isoform (P42338 whole entry, canonical isoform): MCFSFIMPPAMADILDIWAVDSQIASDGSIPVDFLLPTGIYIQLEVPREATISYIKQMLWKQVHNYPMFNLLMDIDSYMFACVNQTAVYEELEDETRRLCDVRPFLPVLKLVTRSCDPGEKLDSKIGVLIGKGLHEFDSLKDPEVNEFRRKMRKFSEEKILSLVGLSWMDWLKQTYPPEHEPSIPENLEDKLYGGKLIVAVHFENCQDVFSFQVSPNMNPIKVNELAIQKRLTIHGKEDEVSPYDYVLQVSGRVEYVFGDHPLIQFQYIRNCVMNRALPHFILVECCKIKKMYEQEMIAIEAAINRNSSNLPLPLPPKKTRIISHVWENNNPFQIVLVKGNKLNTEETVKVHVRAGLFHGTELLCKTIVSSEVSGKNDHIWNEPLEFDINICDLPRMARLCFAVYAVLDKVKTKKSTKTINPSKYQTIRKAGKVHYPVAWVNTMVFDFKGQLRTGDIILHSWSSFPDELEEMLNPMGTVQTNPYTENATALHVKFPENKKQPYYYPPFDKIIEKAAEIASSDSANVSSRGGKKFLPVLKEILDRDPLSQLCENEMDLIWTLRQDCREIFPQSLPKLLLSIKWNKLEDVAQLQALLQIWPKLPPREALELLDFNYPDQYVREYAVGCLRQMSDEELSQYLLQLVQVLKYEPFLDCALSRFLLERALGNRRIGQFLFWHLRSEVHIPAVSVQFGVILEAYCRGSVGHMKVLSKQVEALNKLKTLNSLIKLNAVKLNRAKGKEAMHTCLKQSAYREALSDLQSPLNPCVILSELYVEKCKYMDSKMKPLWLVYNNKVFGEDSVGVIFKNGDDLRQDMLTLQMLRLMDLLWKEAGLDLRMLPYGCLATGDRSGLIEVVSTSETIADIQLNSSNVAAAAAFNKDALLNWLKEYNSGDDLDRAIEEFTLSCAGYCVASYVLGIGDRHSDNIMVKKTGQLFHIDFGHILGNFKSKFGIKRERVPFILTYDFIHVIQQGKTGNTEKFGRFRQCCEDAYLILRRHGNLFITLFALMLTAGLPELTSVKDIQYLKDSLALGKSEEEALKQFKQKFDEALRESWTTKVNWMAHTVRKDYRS

Homo sapiens = species on record: Homo sapiens; assay: Selectivity ratio of IC50 for mTOR to IC50 for PI3Kalpha
[10] = Metabolic stability in human liver microsomes assessed as compound remaining at 1 uM after 15 mins; assay type: ADME, Microsome; conditions: read-out: Stability
CYP1A2 = target: T3, CYP1A2 (Homo sapiens, UniProt P05177); assay: Inhibition of CYP1A2 at 10 uM; assay type: ADME
T3 sequence (P05177 whole entry): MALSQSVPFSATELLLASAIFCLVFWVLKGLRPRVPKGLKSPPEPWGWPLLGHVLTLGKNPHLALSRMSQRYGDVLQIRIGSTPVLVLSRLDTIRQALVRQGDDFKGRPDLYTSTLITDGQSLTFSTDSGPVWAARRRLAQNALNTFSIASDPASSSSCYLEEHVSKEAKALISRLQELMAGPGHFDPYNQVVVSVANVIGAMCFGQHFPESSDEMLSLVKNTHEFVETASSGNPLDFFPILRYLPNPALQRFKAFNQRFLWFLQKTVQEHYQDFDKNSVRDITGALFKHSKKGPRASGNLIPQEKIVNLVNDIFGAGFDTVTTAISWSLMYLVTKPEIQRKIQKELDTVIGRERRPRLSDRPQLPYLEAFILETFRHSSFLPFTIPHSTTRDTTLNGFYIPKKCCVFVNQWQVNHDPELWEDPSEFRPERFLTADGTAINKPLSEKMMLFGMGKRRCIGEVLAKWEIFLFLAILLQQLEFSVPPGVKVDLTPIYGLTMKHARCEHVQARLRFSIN

MDR1 (P-gp), human [11] = assay: Efflux ratio of permeability from basolateral to apical side over apical to basolateral side in MDCK cells over expressing human MDR1 at 2 uM after 150 mins; assay type: ADME, cell-based, Canis lupus familiaris; conditions: dog
[12] = Metabolic stability in mouse liver microsomes assessed as compound remaining at 1 uM after 15 mins; assay type: ADME, Microsome; conditions: read-out: Stability
CYP2D6 = CYP2D6 (Homo sapiens, UniProt P10635); assay: Inhibition of CYP2D6 at 10 uM; assay type: ADME
MDR1 (P-gp), human [13] = assay: Apparent permeability from apical to basolateral side in MDCK cells over expressing human MDR1 at 2 uM after 150 mins; assay type: ADME, cell-based, Canis lupus familiaris; conditions: dog
CYP2C9 = CYP2C9 (Homo sapiens, UniProt P11712); assay: Inhibition of CYP2C9 at 10 uM; assay type: ADME
Chain of CYP2C9 (P11712 whole entry): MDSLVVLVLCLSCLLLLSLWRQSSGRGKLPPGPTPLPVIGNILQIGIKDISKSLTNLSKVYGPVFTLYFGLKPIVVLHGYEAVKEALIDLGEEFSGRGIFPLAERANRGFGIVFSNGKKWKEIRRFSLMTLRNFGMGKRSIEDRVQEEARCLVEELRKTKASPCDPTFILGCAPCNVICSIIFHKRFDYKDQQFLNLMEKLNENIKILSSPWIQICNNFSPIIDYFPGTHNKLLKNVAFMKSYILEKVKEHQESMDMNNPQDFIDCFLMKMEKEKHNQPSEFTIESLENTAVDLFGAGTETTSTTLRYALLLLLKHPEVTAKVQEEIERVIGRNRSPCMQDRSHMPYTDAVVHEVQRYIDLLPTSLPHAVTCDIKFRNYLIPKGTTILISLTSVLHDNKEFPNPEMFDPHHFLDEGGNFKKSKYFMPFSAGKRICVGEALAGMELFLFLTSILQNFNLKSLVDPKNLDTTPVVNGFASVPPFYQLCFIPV

CYP2C19 = CYP2C19 (Homo sapiens, UniProt P33261); assay: Inhibition of CYP2C19 at 10 uM; assay type: ADME
Chain of CYP2C19 (P33261 whole entry): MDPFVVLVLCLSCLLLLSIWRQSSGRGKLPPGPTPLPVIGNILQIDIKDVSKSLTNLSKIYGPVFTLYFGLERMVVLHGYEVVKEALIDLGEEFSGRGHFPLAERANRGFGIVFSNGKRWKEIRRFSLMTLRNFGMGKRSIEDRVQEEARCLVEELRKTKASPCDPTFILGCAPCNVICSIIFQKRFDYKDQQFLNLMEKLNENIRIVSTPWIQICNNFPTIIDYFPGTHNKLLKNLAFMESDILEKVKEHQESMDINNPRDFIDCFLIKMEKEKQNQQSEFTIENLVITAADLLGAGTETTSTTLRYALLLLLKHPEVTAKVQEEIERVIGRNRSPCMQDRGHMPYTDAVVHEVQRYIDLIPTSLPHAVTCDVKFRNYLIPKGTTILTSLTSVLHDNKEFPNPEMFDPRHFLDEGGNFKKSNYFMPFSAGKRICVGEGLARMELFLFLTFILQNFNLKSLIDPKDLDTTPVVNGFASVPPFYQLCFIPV

CYP3A4 = CYP3A4 (Homo sapiens, UniProt P08684); assay: Inhibition of CYP3A4 at 10 uM; assay type: ADME
Chain of CYP3A4 (P08684 whole entry): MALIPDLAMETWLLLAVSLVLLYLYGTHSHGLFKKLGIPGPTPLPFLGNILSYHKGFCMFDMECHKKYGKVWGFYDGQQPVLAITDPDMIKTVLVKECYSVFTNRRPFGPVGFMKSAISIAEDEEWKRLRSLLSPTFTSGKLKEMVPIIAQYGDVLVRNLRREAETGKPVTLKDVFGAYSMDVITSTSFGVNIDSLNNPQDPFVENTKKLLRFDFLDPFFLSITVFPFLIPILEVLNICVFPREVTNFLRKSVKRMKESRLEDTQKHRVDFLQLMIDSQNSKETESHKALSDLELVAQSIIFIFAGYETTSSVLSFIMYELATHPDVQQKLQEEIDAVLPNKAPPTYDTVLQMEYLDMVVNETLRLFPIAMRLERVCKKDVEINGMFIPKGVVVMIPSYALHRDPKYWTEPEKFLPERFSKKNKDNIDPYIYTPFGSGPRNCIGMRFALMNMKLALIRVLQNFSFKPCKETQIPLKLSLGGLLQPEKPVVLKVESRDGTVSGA

| IC50 [1] [nM] | IC50 [2] [nM] | IC50 [3] [nM] | Structure (SMILES) | further results |
| --- | --- | --- | --- | --- |
| > 5000 | 30.3 | 4.6 | CN(C)CCNC(=O)c1cn2cc(-c3cnc(N)nc3)nc(N3CCOCC3)c2n1 | – |
| 2290 | 14 | 2.7 | COCCNC(=O)c1cn2cc(-c3cnc(N)nc3)nc(N3CCOCC3)c2n1 | – |
| – | 35.1 | 11.2 | COCCNC(=O)c1cn2c(Cl)c(-c3cnc(N)nc3)nc(N3CCOCC3)c2n1 | – |
| 237 | 1.8 | 0.4 | NC(=O)c1cn2cc(-c3cnc(N)nc3)nc(N3CCOCC3)c2n1 | remaining at 0.25 h, 1 µM [10]: 90%; inhibition at 10 µM (CYP1A2): 24%; efflux ratio at 2.5 h, 2 µM (MDR1 (P-gp), human [11]): 0.9; remaining at 0.25 h, 1 µM [12]: 92%; inhibition at 10 µM (CYP2D6): 8%; Ratio IC50 (Homo sapiens): > 50; Papp A→B at 2.5 h, 2 µM (MDR1 (P-gp), human [13]): 15.4 ×10⁻⁶ cm/s; inhibition at 10 µM (CYP2C9): 5%; inhibition at 10 µM (CYP2C19): 13%; inhibition at 10 µM (CYP3A4): 17% |

Further lines, the molecule ahead of its results:

| Structure (SMILES) | IC50 [1] [nM] | IC50 [2] [nM] | IC50 [3] [nM] | further results |
| --- | --- | --- | --- | --- |
| CN(C)CCCNC(=O)c1cn2cc(-c3cccc4[nH]ncc34)nc(N3CCOCC3)c2n1 | – | 429 | – | – |
| COCCNC(=O)c1nc2c(N3CCOCC3)nc(-c3cnc(N)nc3)cn2c1C | – | – | – | inhibition in vivo at 10 mg/kg (BT-474): 58%; Activity (Mus musculus [4]): Active; inhibition in vivo at 25 mg/kg (Mus musculus [5]): 61%; Ki [6]: 8 nM; Activity (Mus musculus [7]): >70%; Ki [8]: 62.9 nM; Activity (Lung): Active; Ki [9]: 94.1 nM |
| Nc1ncc(-c2cn3cc(C(=O)NCCN4CCOCC4)nc3c(N3CCOCC3)n2)cn1 | > 5000 | 34.3 | 10.4 | – |
| Nc1ncc(-c2cn3cc(C(=O)N[C@H]4CC[C@H](O)CC4)nc3c(N3CCOCC3)n2)cn1 | 989 | 70 | – | Ratio IC50 (Homo sapiens): > 50 |
| CN(C)CCCNC(=O)c1cn2cc(-c3cnc(N)nc3)nc(N3CCOCC3)c2n1 | > 5000 | 8.7 | 0.6 | – |
| COCCCNC(=O)c1cn2cc(-c3cnc(N)nc3)nc(N3CCOCC3)c2n1 | > 5000 | 26 | 3.2 | – |
| Nc1ncc(-c2cn3cc(C(=O)NC4CCOCC4)nc3c(N3CCOCC3)n2)cn1 | 751 | – | – | – |
